Measured values from US20260043007A1, “METHOD FOR PRODUCING CARDIAC MUSCLES” (Kyoto University, priority 2022, published 2026).

Key:
[1] = test system: CD151 expression in EmGFP-positive cells induced from human iPS cell line (1390D4 strain); assay: Sorting of atrial myocyte population based on CD151 expression level (flow cytometry); format: cell-based; settings: 3 μM LY411575 from day 8 to day 20 of differentiation, mean ± standard error
Method: A cell population containing cardiomyocytes was induced from iPSC under atrial myocyte differentiation conditions or ventricular myocyte differentiation conditions. As iPSC, a double knock-in human iPS cell line (1390D4 strain) was used, in which EmGFP was inserted into the TNNI1 locus and mCherry was inserted into the TNNI3 locus as reporter proteins.
To differentiate iPSC into cardiomyocytes, iPSC was seeded into low-adhesion 6-well plates (2×10^6 cells/1.5 ml/well) and statically cultured at 37° C. and 5% oxygen to form embryoid bodies (day 0). The culture medium used was StemPro-34 SFM (Thermo Fisher Scientific) supplemented with 1% L-glutamine, 150 μg/ml transferrin, […] ascorbic acid, 4×10^-4 M monothioglycerol, 10 μM Rock inhibitor (Y-27632), 2 ng/ml BMP4, and 0.5% Matrigel. […]
On the 20th day of culture, the cell population containing atrial myocytes was dispersed into single cells and the cell number was counted. […] CD151 expression in EmGFP-positive cells was analyzed using a flow cytometer (BD FACS Aria Fusion cell sorter). The fluorescence intensity of 95% or more of the negative control cells was set as the threshold, and the cell subpopulations showing fluorescence intensity lower than the threshold were defined as “CD151-low” and the cell subpopulations showing fluorescence intensity higher than the threshold were defined as “CD151-high”. […]

[2] = test system: HEY2 (target gene of Notch signal); assay: Expression analysis of the target gene of Notch signal (HEY2) in sorted cell subpopulations; format: cell-based, human; settings: both CD151-high and CD151-low, compared to DMSO-added control
Method: (§1) On the 6th day of differentiation, the medium was replaced with cardiomyocyte induction medium 3, and from the 8th day of differentiation onwards, 3 μM of γ-secretase inhibitor (LY411575) that inhibits Notch signaling was added when changing the medium, and the cells were cultured at 37° C. under 5% oxygen conditions until the 10th day. Cells added with 0.1% DMSO were also prepared as a control. Thereafter, the medium was changed on the 10th, 13th, 15th, and 17th days, and after the medium change on the 10th day, the cells were cultured under normal oxygen conditions until the 20th day. As the cardiomyocyte induction medium 3, StemPro-34 SFM supplemented with 1% L-glutamine, 150 μg/ml transferrin, 50 μg/ml ascorbic acid, 4×10^-4 M monothioglycerol, and 5 ng/ml VEGF was used.
(§2) The expression of marker genes indicating Notch signal activity and atrial myocyte markers was analyzed for the cardiomyocyte subpopulations “DMSO/CD151-high”, “DMSO/CD151-low”, “Notch inhibitor/CD151-high”, and “Notch inhibitor/CD151-low” obtained in Experimental Example 2.
(§3) According to the conventional method, total RNA was extracted from each cell subpopulation and expression analysis was performed for the target gene of Notch signal (HEY2) and the marker genes of atrial myocytes (NR2F1, NR2F2, NPPA, KCNA5, KCNJ3, TBX5 and MYL7). […]

[3] = test system: marker genes of atrial myocytes (NR2F1, NR2F2, NPPA, KCNA5, KCNJ3, TBX5 and MYL7); assay: Expression analysis of atrial myocyte marker genes in sorted cell subpopulations; format: cell-based, human; settings: both CD151-high and CD151-low, compared to DMSO-added control population
Method: as §1, §2, §3

[4] = test system: cardiomyocyte subpopulations differentiated from human iPS cells; assay: Proportion of atrial myocytes by whole-cell patch clamp electrophysiology; format: cell-based; settings: for atrial myocytes (%): APD 30/90 less than 0.3 and dv/dtmax 10 or more
Method: as §1
The proportion of atrial myocytes was determined by an electrophysiological method for the “Notch inhibitor/CD151-high” and “Notch inhibitor/CD151-low” cardiomyocyte subpopulations obtained in Experimental Example 2.
Each cell subpopulation was cultured on a fibronectin-coated cover glass. Culture was performed at 37° C. under normal oxygen conditions using StemPro-34 SFM supplemented with 1% L-glutamine, 150 μg/ml transferrin, 50 ug/ml ascorbic acid, 4×10^-4 M monothioglycerol, and 5 ng/ml VEGF, with medium change every 3 days. Cells on the 15th and 16th days of culture were subjected to electrophysiological analysis.
Analysis was performed using the whole-cell patch clamp method using Axopatch 200B amplifier (Molecular Devices) and pCLAMP software. Electrodes were made with glass capillaries (WPI) using a micropipette puller and filled with intracellular solution (130 mM KOH, 130 mM L-aspartic acid, 20 mM KC1, 5 mM NaCl, 10 mM HEPES, 5 mM Mg-ATP, 10 mM EGTA, 1 mM MgC12, PH 7.2). Experiments were performed at 35-37° C. while perfusing Gey's balanced salt solution (Sigma) as the extracellular solution. The spontaneous action potential of each cell was recorded for 1 min in current clamp mode. APD30, APD90, and maximum velocity of waveform rise (dv/dtmax) were calculated from the average waveform of 8-10 consecutive waveforms. Cells showing a waveform with APD 30/90 of less than 0.3 and dv/dtmax of 10 or more were defined as atrial myocytes. Cells showing a waveform with APD 30/90 of 0.3 or more and dv/dtmax of 10 or more or dv/dtmax of less than 10 were classified as other cells. […]

[5] = CD151-high subpopulation, n = 19
[6] = CD151-low subpopulation, n = 20

C[C@H](NC(=O)[C@@H](O)c1cc(F)cc(F)c1)C(=O)N[C@@H]1C(=O)N(C)c2ccccc2-c2ccccc21 [Notch inhibitor]
Cell population (%) CD151-high [1]: 39.9 ± 3.3% | Cell population (%) CD151-low [1]: 60.1 ± 3.3% | expression of the HEY2 gene [2]: reduced | expression of atrial myocyte markers [3]: increased | other cells (%) [4, 5]: 68% | atrial myocytes (%) [4, 5]: 32% | other cells (%) [4, 6]: 20% | atrial myocytes (%) [4, 6]: 80%
